According to PubChem BioAssay (NCI):
Several values for one entry are separate records, joined by “and”; a condition that tells them apart may be missing. Equal entries are not always repeated.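 Test compounds were applied to cells in 96-well plates for 48 hours at 5 doses. GI50: concentration for 50% inhibition of growth. Definition used: TGI = concentration required for complete inhibition of growth.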

Legend:
Test in all cases: NCI-60 cell line screen, 48 h
786-0 renal = tested on: 786-0 renal
A498 renal = tested on: A498 renal
A549 NSCLC = tested on: A549 NSCLC
ACHN renal = tested on: ACHN renal
BT-549 breast = tested on: BT-549 breast
CAKI-1 renal = tested on: CAKI-1 renal
CCRF-CEM leukemia = tested on: CCRF-CEM leukemia
COLO 205 colon = tested on: COLO 205 colon
DU-145 prostate = tested on: DU-145 prostate
EKVX NSCLC = tested on: EKVX NSCLC
HCC-2998 colon = tested on: HCC-2998 colon
HCT-116 colon = tested on: HCT-116 colon
HCT-15 colon = tested on: HCT-15 colon
HL-60(TB) leukemia = tested on: HL-60(TB) leukemia
HOP-62 NSCLC = tested on: HOP-62 NSCLC
HOP-92 NSCLC = tested on: HOP-92 NSCLC
HS 578T breast = tested on: HS 578T breast
HT29 colon = tested on: HT29 colon
IGROV1 ovarian = tested on: IGROV1 ovarian
K-562 leukemia = tested on: K-562 leukemia
KM12 colon = tested on: KM12 colon
LOX IMVI melanoma = tested on: LOX IMVI melanoma
M14 melanoma = tested on: M14 melanoma
MALME-3M melanoma = tested on: MALME-3M melanoma
MCF7 breast = tested on: MCF7 breast
MDA-MB-231 breast = tested on: MDA-MB-231 breast
MDA-MB-435 = tested on: MDA-MB-435
MOLT-4 leukemia = tested on: MOLT-4 leukemia
NCI-H226 lung = tested on: NCI-H226 lung

Question: Which GI50 (786-0 renal) does the source give for O=C1C2=C(C(=O)c3ccccc31)C(O)(S(=O)(=O)O)C(O)(S(=O)(=O)O)C1N=CC=CC21 (stereo not drawn) here?
Answer: Its GI50 is 5.03 µM and 4.29 µM.

Question: What about the TGI (786-0 renal) of the same molecule?
Answer: Its TGI is 25 µM and 17.4 µM.

Question: And the GI50 (A498 renal)?
Answer: The GI50 was 10.1 µM and 3.3 µM.

Question: And the TGI (A498 renal)?
Answer: The TGI was 40.1 µM and 12.7 µM.

Question: And the GI50 (A549 NSCLC)?
Answer: Its GI50 is 4.75 µM and 4.09 µM.

Question: What about the TGI (A549 NSCLC) of the same molecule?
Answer: Its TGI is 37.1 µM and 16.1 µM.

Question: What about the GI50 (ACHN renal) of the same molecule?
Answer: The GI50 was 4.47 µM and 3.83 µM.

Question: What about the TGI (ACHN renal) of the same molecule?
Answer: The TGI was 39.2 µM and 19.3 µM.

Question: What about the GI50 (BT-549 breast) of the same molecule?
Answer: Its GI50 is 5.88 µM and 5.04 µM.

Question: What about the TGI (BT-549 breast) of the same molecule?
Answer: Its TGI is 39.9 µM and 25.8 µM.

Question: And the GI50 (CAKI-1 renal)?
Answer: Its GI50 is 1.72 µM and 0.315 µM.

Question: What about the TGI (CAKI-1 renal) of the same molecule?
Answer: The TGI was 9.4 µM and 1.87 µM.

Question: And the GI50 (CCRF-CEM leukemia)?
Answer: The GI50 was 6.47 µM.

Question: What about the TGI (CCRF-CEM leukemia) of the same molecule?
Answer: The TGI was > 100 µM.

Question: And the GI50 (COLO 205 colon)?
Answer: The GI50 was 7.08 µM and 4.11 µM.

Question: What about the TGI (COLO 205 colon) of the same molecule?
Answer: Its TGI is 29.9 µM and 61.5 µM.

Question: And the GI50 (DU-145 prostate)?
Answer: Its GI50 is 6.09 µM and 5.9 µM.

Question: And the TGI (DU-145 prostate)?
Answer: The TGI was 44 µM and 22.2 µM.

Question: What about the GI50 (EKVX NSCLC) of the same molecule?
Answer: Its GI50 is 3.32 µM and 2.71 µM.

Question: What about the TGI (EKVX NSCLC) of the same molecule?
Answer: Its TGI is 31.9 µM and 14.5 µM.

Question: What about the GI50 (HCC-2998 colon) of the same molecule?
Answer: Its GI50 is 4.63 µM and 3.93 µM.

Question: What about the TGI (HCC-2998 colon) of the same molecule?
Answer: The TGI was 60.4 µM and 17.5 µM.

Question: And the GI50 (HCT-116 colon)?
Answer: Its GI50 is 3.34 µM and 2.81 µM.

Question: What about the TGI (HCT-116 colon) of the same molecule?
Answer: Its TGI is 20.1 µM and 12.7 µM.

Question: What about the GI50 (HCT-15 colon) of the same molecule?
Answer: The GI50 was 3.47 µM and 2.15 µM.

Question: What about the TGI (HCT-15 colon) of the same molecule?
Answer: The TGI was > 100 µM.

Question: And the GI50 (HL-60(TB) leukemia)?
Answer: The GI50 was 7.83 µM and 4.13 µM.

Question: And the TGI (HL-60(TB) leukemia)?
Answer: The TGI was > 100 µM and 20.6 µM.

Question: And the GI50 (HOP-62 NSCLC)?
Answer: The GI50 was 5.36 µM and 3.03 µM.

Question: What about the TGI (HOP-62 NSCLC) of the same molecule?
Answer: The TGI was 31.8 µM and 19.2 µM.

Question: And the GI50 (HOP-92 NSCLC)?
Answer: The GI50 was 2.96 µM and 1.85 µM.

Question: And the TGI (HOP-92 NSCLC)?
Answer: The TGI was 26.9 µM and 6.81 µM.

Question: What about the GI50 (HS 578T breast) of the same molecule?
Answer: Its GI50 is 4.93 µM and 3.71 µM.

Question: What about the TGI (HS 578T breast) of the same molecule?
Answer: Its TGI is 75.7 µM and 29.8 µM.

Question: What about the GI50 (HT29 colon) of the same molecule?
Answer: The GI50 was 5.84 µM and 4.51 µM.

Question: And the TGI (HT29 colon)?
Answer: Its TGI is > 100 µM and 20.8 µM.

Question: And the GI50 (IGROV1 ovarian)?
Answer: The GI50 was 2.19 µM.

Question: And the TGI (IGROV1 ovarian)?
Answer: Its TGI is 9.5 µM.

Question: What about the GI50 (K-562 leukemia) of the same molecule?
Answer: The GI50 was 3.71 µM.

Question: And the TGI (K-562 leukemia)?
Answer: The TGI was > 100 µM.

Question: And the GI50 (KM12 colon)?
Answer: The GI50 was 4.33 µM and 4.8 µM.

Question: And the TGI (KM12 colon)?
Answer: The TGI was 67.4 µM and 20 µM.

Question: And the GI50 (LOX IMVI melanoma)?
Answer: The GI50 was 3.1 µM and 2.84 µM.

Question: And the TGI (LOX IMVI melanoma)?
Answer: The TGI was 54.9 µM and 20.3 µM.

Question: And the GI50 (M14 melanoma)?
Answer: Its GI50 is 4.83 µM and 3.2 µM.

Question: What about the TGI (M14 melanoma) of the same molecule?
Answer: Its TGI is 32.1 µM and 29.4 µM.

Question: And the GI50 (MALME-3M melanoma)?
Answer: The GI50 was 10.3 µM and 14.8 µM.

Question: What about the TGI (MALME-3M melanoma) of the same molecule?
Answer: The TGI was 36.7 µM and 39 µM.

Question: And the GI50 (MCF7 breast)?
Answer: Its GI50 is 4.9 µM and 3.26 µM.

Question: What about the TGI (MCF7 breast) of the same molecule?
Answer: The TGI was 29.1 µM and 27.2 µM.

Question: What about the GI50 (MDA-MB-231 breast) of the same molecule?
Answer: The GI50 was 14.5 µM and 4.51 µM.

Question: And the TGI (MDA-MB-231 breast)?
Answer: The TGI was > 100 µM and 46.6 µM.

Question: What about the GI50 (MDA-MB-435) of the same molecule?
Answer: Its GI50 is 4.56 µM and 3.56 µM.

Question: What about the TGI (MDA-MB-435) of the same molecule?
Answer: Its TGI is 80.5 µM and 24.8 µM.

Question: And the GI50 (MOLT-4 leukemia)?
Answer: The GI50 was 7.06 µM and 4.38 µM.

Question: And the TGI (MOLT-4 leukemia)?
Answer: The TGI was > 100 µM and 34.4 µM.

Question: What about the GI50 (NCI-H226 lung) of the same molecule?
Answer: The GI50 was 9.22 µM and 11.9 µM.

Question: What about the TGI (NCI-H226 lung) of the same molecule?
Answer: The TGI was 69.2 µM and 27.7 µM.
